Literature values in patent US12492208B2, “Crystal of pyrimidine compound” (TAIHO PHARMACEUTICAL CO., LTD., priority 2020, dated 2025).

Key:
brain metastatic cancer = conditions: clinical tests; cited from earlier work
[1] = non-clinical tests; substrates of p-gp or Bcrp; cited from earlier work

CCOc1cc2ncc(C#N)c(Nc3ccc(OCc4ccccn4)c(Cl)c3)c2cc1NC(=O)/C=C/CN(C)C [Neratinib]
effects against brain metastatic cancer (brain metastatic cancer): sufficient effects of these agents could not be obtained | brain penetration properties [1]: limited
